Laboratory results: patent EP1171141B1, “MEDICAMENT FOR INHIBITING THE NF-kB TRANSCRIPTION FACTOR” (Max Zeller Söhne AG, priority 1999, dated 2000)

Legend:
Format in all cases: cell-based
[1] = target: T1, COX-2 (Homo sapiens, UniProt P35354); assay: cell-based
T1 construct: Dazu wurden Mono Mac 6 Zellen mit unterschiedlichen Konzentrationen der Testsubstanzen während 30 min inkubiert; endogenous in cells; host or cells: Mono Mac 6 cells, LPS-stimulated
T1 sequence (P35354 18-604): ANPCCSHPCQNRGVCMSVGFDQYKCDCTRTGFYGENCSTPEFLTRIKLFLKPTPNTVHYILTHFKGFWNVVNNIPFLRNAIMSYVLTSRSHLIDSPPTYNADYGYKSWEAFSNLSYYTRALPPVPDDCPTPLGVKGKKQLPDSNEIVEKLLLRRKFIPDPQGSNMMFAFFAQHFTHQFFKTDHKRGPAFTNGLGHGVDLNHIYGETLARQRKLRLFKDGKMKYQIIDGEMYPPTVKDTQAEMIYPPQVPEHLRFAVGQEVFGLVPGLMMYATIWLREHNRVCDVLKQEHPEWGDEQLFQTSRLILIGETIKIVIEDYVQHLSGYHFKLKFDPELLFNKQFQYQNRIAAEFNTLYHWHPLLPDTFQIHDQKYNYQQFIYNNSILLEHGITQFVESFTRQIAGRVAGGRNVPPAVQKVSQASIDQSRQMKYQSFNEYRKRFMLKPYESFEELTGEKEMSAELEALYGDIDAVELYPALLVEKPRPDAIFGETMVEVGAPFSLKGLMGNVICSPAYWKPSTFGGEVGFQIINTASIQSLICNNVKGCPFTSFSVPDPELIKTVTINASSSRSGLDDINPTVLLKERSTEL
Method: Zur Bestimmung der COX-2-Hemmwirkung wurde allgemein nach der Methode von Berg et al., J. Pharmacol. Toxicol.
Dazu wurden Mono Mac 6 Zellen mit unterschiedlichen Konzentrationen der Testsubstanzen während 30 min inkubiert. Anschliessend wurde Lipopolysaccharid (LPS, 100 ng/ml) zupipettiert und nochmals sechs Stunden inkubiert. Anschliessend wurde Arachidonsäure zugegeben (Endkonzentration 30 µM), während 15 Min. inkubiert und das gebildete Keto-PGF1α mittels ELISA (Enzyme Linked Immuno Sorbent Assay) bestimmt.
In einer Variante wurden Testsubstanz und LPS zeitgleich eingesetzt. Die Messung der COX1 Hemmung erfolgte in HEL-Zellen nach der Methode von Berg et al., J. Pharmacol. Toxicol. […] Dabei wurden HEL Zellen mit unterschiedlichen Konzentrationen der Testsubstanzen während 30 min inkubiert, anschliessend Arachidonsäure zugesetzt (Endkonzentration 30 µM), während 15 Min. inkubiert und das gebildete Tromboxan B2 mittels ELISA gemessen. […]

[2] = tested on: NF-κB; assay: NF-κB inhibition of test compounds, NF-κB binding to DNA by EMSA (Jurkat T cells and cell extracts); details: Jurkat T cells
Source text: Bestimmt wurde dabei die in-vivo und die in-vitro NF-κB Bindung an DNA durch Messung der elektrophoretischen Mobilitätsverschiebung.
Die in vivo Bindung wurde mit Jurkat T-Zellen durchgeführt. Die Zellen wurden während einer Stunde mit verschiedenen Konzentrationen der verschiedenen Extrakte inkubiert und anschliessend mit TNF-α während einer Stunde stimuliert. Total-Protein-Extrakte der Zellen wurden gewonnen und in einem Assay auf elektrophoretische Mobilitätsverschiebung (electrophoretic mobility shift assay, EMSA) auf NF-κB-bindende Aktivität geprüft.
Die in vitro Bindung wurde ebenfalls mit Jurkat T-Zellen geprüft. Zellextrakle von stimulierten wie unstimulierten Zellen wurden gewonnen. Gleiche Proteinmengen (10-20 µg) wurden 2 Stunden mit Konzentrationsreihen der zu testenden Verbindungen inkubiert und schliesslich auf elektrophoretische Mobilitätsverschiebung (EMSA) analysiert.

[3] = target: T2, COX-1 (Homo sapiens, UniProt P23219); assay: COX-1 inhibition in HEL cells (Tromboxan B2 by ELISA)
T2 construct: Die Messung der COX1 Hemmung erfolgte in HEL-Zellen nach der Methode von Berg et al; endogenous in cells; host or cells: HEL cells
Method: In einer Variante wurden Testsubstanz und LPS zeitgleich eingesetzt. Die Messung der COX1 Hemmung erfolgte in HEL-Zellen nach der Methode von Berg et al., J. Pharmacol. Toxicol. Methods 37, 179-186 (1997). Dabei wurden HEL Zellen mit unterschiedlichen Konzentrationen der Testsubstanzen während 30 min inkubiert, anschliessend Arachidonsäure zugesetzt (Endkonzentration 30 µM), während 15 Min. inkubiert und das gebildete Tromboxan B2 mittels ELISA gemessen.

T2 sequence (P23219 24-599): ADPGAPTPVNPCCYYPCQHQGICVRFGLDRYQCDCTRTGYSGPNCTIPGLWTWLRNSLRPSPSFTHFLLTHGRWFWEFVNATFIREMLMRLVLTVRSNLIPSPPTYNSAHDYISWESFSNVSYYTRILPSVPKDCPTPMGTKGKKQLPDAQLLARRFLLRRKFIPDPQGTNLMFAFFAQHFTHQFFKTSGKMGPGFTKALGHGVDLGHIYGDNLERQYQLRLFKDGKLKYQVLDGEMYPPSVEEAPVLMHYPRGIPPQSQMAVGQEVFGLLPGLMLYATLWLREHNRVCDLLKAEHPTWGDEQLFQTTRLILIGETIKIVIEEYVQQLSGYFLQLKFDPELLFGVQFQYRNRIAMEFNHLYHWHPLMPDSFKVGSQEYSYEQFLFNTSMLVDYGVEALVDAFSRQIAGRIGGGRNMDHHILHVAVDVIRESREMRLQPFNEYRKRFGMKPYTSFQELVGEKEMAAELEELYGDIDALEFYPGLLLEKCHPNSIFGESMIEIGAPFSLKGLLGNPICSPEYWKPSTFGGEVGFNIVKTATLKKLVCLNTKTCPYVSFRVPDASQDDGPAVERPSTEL

Row | Structure (SMILES) | IC50 [1] [nM] | NF-κB: Grenzkonzentration, bei der eben noch ein Hemmeffekt im EMSA feststellbar ist [2] | IC50 [3] [nM] | präferentielle Hemmung der induzierbaren COX-2 ([1]; COX-2 versus COX-1, statement on Table 2)
1 | Nc1ccc2nc3n(c(=O)c2c1)-c1ccc(F)cc1C3=O [Verbindung 20] | 500 | 5 µM/Liter | 5000 | –
2 | CN(CC(=O)O)c1ccc2c(=O)n3c(nc2c1)C(=O)c1cc(Cl)ccc1-3 [Verbindung 99] | 500 | 1 µM/Liter | 5000 | –
3 | CCCCCCCCS(=O)(=O)c1ccc2c(c1)C(=O)c1nc3c(OC)cccc3c(=O)n1-2 [Verbindung 69] | > 50000 | >100 µM/Liter | > 50000 | –
4 | O=C1c2ccccc2-n2c1nc1ccccc1c2=O [Verbindung 1, Indolo[2,1-b]chinazolin-6,12-dion] | – | – | 2000 | –
5 | O=C1c2cc(Cl)ccc2-n2c1nc1ccccc1c2=O [Verbindung 10] | 500 | 5 µM/Liter | 1000 | –
6 | CN(CCO)c1ccc2c(=O)n3c(nc2c1)C(=O)c1cc(OC(F)(F)F)ccc1-3 [Verbindung 110] | 500 | 5 µM/Liter | 2000 | –
7 | O=C1c2ccccc2-n2c1nc1ccc(Cl)cc1c2=O [Verbindung 5] | 2000 | 50 µM/Liter | 10000 | –
8 | O=C1c2cc(Cl)ccc2-n2c1nc1cc(N3CCOCC3)ccc1c2=O [Verbindung 86] | 10 | 0,5 µM/Liter | 5000 | besonders deutliche präferentielle Hemmung der induzierbaren COX-2
9 | Cc1cc(C)c2nc3n(c(=O)c2c1)-c1ccc(F)cc1C3=O [Verbindung 24] | > 50000 | >100 µM/Liter | > 50000 | –
10 | CN1CCN(c2ccc3c(=O)n4c(nc3c2)C(=O)c2cc(F)ccc2-4)CC1 [Verbindung 32] | 1000 | 10 µM/Liter | 1000 | –
11 | CC1CN(c2cc3c(cc2F)C(=O)c2nc4ccccc4c(=O)n2-3)CCN1C(=O)OC(C)(C)C (centres unmarked) [Verbindung 42] | > 50000 | >100 µM/Liter | > 50000 | –
12 | CCOC(=O)c1ccc2c(c1)C(=O)c1nc3ccccc3c(=O)n1-2 [Verbindung 37] | > 50000 | >100 µM/Liter | > 50000 | –
